Read-outs that look alike come from different tables or passages of the source.
Tests used:
C57BL/6J mice [1] = assay: LPS-induced septic shock model; type: in vivo, mouse; conditions: LPS 10 mg/kg i.p., CPT 30 mg/kg 30 minutes before and one hour after LPS
[2] = system: RNAPII and Top1 at transcriptional start sites; type: cell-based; conditions: A549, PR8ΔNS1
spleen of C57BL/6J mice = conditions: LPS+CPT, 90 minutes after LPS
C57BL/6J mice [3] = assay: Cecal ligation puncture (CLP) model; conditions: CPT 30 mg/kg i.v. 6 hours and twice at day 2, 60 mg/kg i.p. day 3 post-surgery
[4] = system: GM-CSF, IL-1β, IL-6 and TNFα in mouse serum; assay: Serum cytokines 4 hours after LPS injection; type: in vivo; conditions: mice
[5] = system: Legionella pneumophila serogroup 1; conditions: guinea pig, in vivo

Row | SMILES | survival in lethal endotoxic (septic) shock (C57BL/6J mice [1]) | RNAPII at PAMP-induced genes [2] | cell death in vivo (Live/Dead dye, spleen) (spleen of C57BL/6J mice) | inflammatory gene transcription in vivo (spleen) (spleen of C57BL/6J mice) | DNA damage (H2AX staining) at the concentration used (A549 cells; A549, 0.5 μM CPT, 100 nM TPT, 6 hours p.i.) | concentration at which DNA damage was detectable, relative to the concentration selected (A549 cells; A549, selected 0.5 μM CPT, 100 nM TPT) | survival following CLP (C57BL/6J mice [3]) | pro-inflammatory genes and cytokine expression (serum titers) [4] | survival rates [5] | time to death relative to the control group [5] | concentration at which DNA damage was detectable, relative to the concentration selected (A549 cells; human)
1 | CC[C@@]1(O)C(=O)OCc2c1cc1n(c2=O)Cc2cc3ccccc3nc2-1 [CPT, Camptothecin] | rescued animals from lethal endotoxic shock | suppress | without inducing cell death | inhibits | neither TPT- nor CPT-treated cells displayed DNA damage | 20 times higher | improved survival | suppression | improved survival rates | delay of death | 
2 | CC[C@@]1(O)C(=O)OCc2c1cc1n(c2=O)Cc2cc3c(CN(C)C)c(O)ccc3nc2-1 [TPT, Topotecan] |  | suppress |  |  |  |  |  |  |  |  | 100 times higher
